Experiments:
Format in all cases: in vivo
[1] = test system: barnyardgrass (Echinochloa crus-galli); test: Test C flooded paddy test; conditions: for Barnyardgrass plant response rating: Flooded Paddy, scale 0 to 100, 0 no effect, 100 complete control; for Plant response rating, Barnyardgrass: flooded paddy test, scale 0 to 100 (0 no effect, 100 complete control)
In short: (§1)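 Each species was cultivated to 2 leaves in flooded paddy pots, then treated. After a greenhouse period of 12–14 days, the plants were scored visually relative to controls from 0 (no effect) to 100 (complete control).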

[2] = test system: rice (Oryza saliva); test: Test C flooded paddy test; conditions: for Rice plant response rating: Flooded Paddy, scale 0 to 100, 0 no effect, 100 complete control; for Plant response rating, Rice: flooded paddy test, scale 0 to 100 (0 no effect, 100 complete control)
In short: as §1

[3] = test system: goosegrass (Eleusine indica); test: Test C preemergence
In short: (§2)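 Compounds in non-phytotoxic solvent with surfactant applied preemergence to planted seeds and postemergence to plants at 1- to 4-leaf stage (2–18 cm). Kept in greenhouse 12–14 days, then visually rated against controls on a 0 (no effect) to 100 (complete control) scale.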

[4] = test system: Nightshade; test: Test C preemergence
[5] = test system: soybean (Glycine max); test: Test C preemergence
In short: as §2

[6] = test system: Surinam grass (Brachiaria decumbens); test: Test C preemergence
In short: as §2

[7] = test system: yellow nutsedge (Cyperus esculentus); test: Test C preemergence
In short: as §2

[8] = test system: cocklebur (Xanthium strumarium); test: Test C preemergence
In short: as §2

[9] = test system: woolly cupgrass (Eriochloa villosa); test: Test C preemergence
In short: as §2

[10] = test system: pigweed (Amaranthus retroflexus); test: Test C preemergence
In short: as §2

[11] = test system: Sunflower; test: Test C preemergence
[12] = test system: bermudagrass (Cynodon dactylon); test: Test C preemergence
In short: as §2

[13] = test system: common ragweed (Ambrosia elatior); test: Test C preemergence
In short: as §2

[14] = test system: kochia (Kochia scoparia); test: Test C preemergence
In short: as §2

[15] = test system: morningglory (Ipomoea hederacea); test: Test C preemergence
In short: as §2

[16] = test system: lambsquarters (Chenopodium album); test: Test C preemergence
In short: as §2

[17] = test system: johnsongrass (Sorghum halepense); test: Test C preemergence
In short: as §2

[18] = test system: crabgrass (Digitaria sanguinalis); test: Test C preemergence
In short: as §2

[19] = test system: giant foxtail (Setaria faberii); test: Test C preemergence
In short: as §2

[20] = test system: corn (Zea mays); test: Test C preemergence
In short: as §2

[21] = test system: velvetleaf (Abutilon theophrasti); test: Test C preemergence
In short: as §2

[22] = test system: Sunflower; test: Test C preemergence; conditions: Rate 250 g/ha, visual evaluation after 12 to 14 days
[23] = Preemergence, Rate 500 g/ha, scale 0 to 100
[24] = Rate 62 g/ha, scale 0 to 100, 0 no effect, 100 complete control
[25] = preemergence, Rate 250 g/ha, visual evaluation after 12 to 14 days
[26] = preemergence, Rate 125 g/ha, scale 0 to 100, 0 no effect, 100 complete control

O=C1C(n2ccc(C3CCCCC3)n2)SCN1c1cccc(OC(F)(F)F)c1 (centres unmarked) [Compound 50]
Barnyardgrass plant response rating ([1]; Rate 250 g/ha): 70 | Barnyardgrass plant response rating ([1]; Rate 500 g/ha): 80 | Plant response rating, Barnyardgrass ([1]; Rate 62 g/ha): 0 | Plant response rating, Barnyardgrass ([1]; Rate 125 g/ha): 40 | Rice plant response rating ([2]; Rate 250 g/ha): 0 | Rice plant response rating ([2]; Rate 500 g/ha): 50 | Plant response rating, Rice ([2]; Rate 62 g/ha): 0 | Plant response rating, Rice ([2]; Rate 125 g/ha): 0 | Plant response rating, Goosegrass [3, 23]: 100 | Plant response rating, Goosegrass [3, 24]: 80 | Plant response rating (0 to 100), Goosegrass [3, 25]: 100 | Plant response rating, Goosegrass [3, 26]: 90 | Plant response rating, Nightshade [4, 24]: 0 | Plant response rating, Nightshade ([4]; Rate 125 g/ha, scale 0 to 100, 0 no effect, 100 complete control): 0 | Plant response rating, Nightshade ([4]; Rate 500 g/ha, scale 0 to 100): 60 | Plant response rating, Soybean [5, 23]: 40 | Plant response rating (0 to 100), Soybean [5, 25]: 0 | Plant response rating, Soybean [5, 26]: 0 | Plant response rating, Surinam grass [6, 23]: 50 | Plant response rating, Surinam grass [6, 24]: 20 | Plant response rating (0 to 100), Surinam grass [6, 25]: 50 | Plant response rating, Surinam grass [6, 26]: 30 | Plant response rating, Nutsedge [7, 23]: 70 | Plant response rating, Nutsedge [7, 24]: 0 | Plant response rating (0 to 100), Nutsedge [7, 25]: 0 | Plant response rating, Nutsedge [7, 26]: 0 | Plant response rating, Cocklebur [8, 23]: 0 | Plant response rating (0 to 100), Cocklebur [8, 25]: 0 | Plant response rating, Cocklebur [8, 26]: 0 | Plant response rating, Cupgrass, Woolly [9, 23]: 90 | Plant response rating, Cupgrass, Woolly [9, 24]: 20 | Plant response rating (0 to 100), Cupgrass, Woolly [9, 25]: 90 | Plant response rating, Cupgrass, Woolly [9, 26]: 20 | Plant response rating, Pigweed [10, 23]: 90 | Plant response rating, Pigweed [10, 24]: 30 | Plant response rating (0 to 100), Pigweed [10, 25]: 20 | Plant response rating, Pigweed [10, 26]: 20 | Plant response rating, Sunflower [11, 24]: 20 | Plant response rating, Sunflower ([11]; Rate 500 g/ha, scale 0 to 100): 60 | Plant response rating, Bermudagrass [12, 23]: 100 | Plant response rating, Bermudagrass [12, 24]: 100 | Plant response rating (0 to 100 where 0 is no effect and 100 is complete control), Bermudagrass [12, 25]: 100 | Plant response rating, Bermudagrass [12, 26]: 100 | Plant response rating, Ragweed, Common [13, 23]: 40 | Plant response rating, Ragweed, Common [13, 24]: 20 | Plant response rating (0 to 100), Ragweed, Common [13, 25]: 40 | Plant response rating, Ragweed, Common [13, 26]: 30 | Plant response rating, Kochia [14, 23]: 20 | Plant response rating, Kochia [14, 24]: 0 | Plant response rating (0 to 100), Kochia [14, 25]: 0 | Plant response rating, Kochia [14, 26]: 0 | Plant response rating, Morningglory [15, 23]: 30 | Plant response rating, Morningglory [15, 24]: 20 | Plant response rating (0 to 100), Morningglory [15, 25]: 30 | Plant response rating, Morningglory [15, 26]: 30 | Plant response rating, Lambsquarters [16, 23]: 70 | Plant response rating, Lambsquarters [16, 24]: 20 | Plant response rating (0 to 100), Lambsquarters [16, 25]: 70 | Plant response rating, Lambsquarters [16, 26]: 50 | Plant response rating, Johnsongrass [17, 23]: 90 | Plant response rating, Johnsongrass [17, 24]: 0 | Plant response rating (0 to 100), Johnsongrass [17, 25]: 70 | Plant response rating, Johnsongrass [17, 26]: 40 | Plant response rating, Crabgrass [18, 23]: 100 | Plant response rating, Crabgrass [18, 24]: 100 | Plant response rating (0 to 100), Crabgrass [18, 25]: 100 | Plant response rating, Crabgrass [18, 26]: 100 | Plant response rating, Foxtail, Giant [19, 23]: 100 | Plant response rating, Foxtail, Giant [19, 24]: 60 | Plant response rating (0 to 100), Foxtail, Giant [19, 25]: 20 | Plant response rating, Foxtail, Giant [19, 26]: 0 | Plant response rating, Corn [20, 23]: 0 | Plant response rating, Corn [20, 24]: 0 | Plant response rating (0 to 100), Corn [20, 25]: 0 | Plant response rating, Corn [20, 26]: 0 | Plant response rating, Velvetleaf [21, 23]: 0 | Plant response rating, Velvetleaf [21, 24]: 0 | Plant response rating (0 to 100), Velvetleaf [21, 25]: 0 | Plant response rating, Velvetleaf [21, 26]: 0 | Plant response rating (0 to 100), Sunflower [22]: 30

Reference: patent US7138361B2, “Herbicidal heterocycles” (E. I. du Pont de Nemours and Company, priority 2000, dated 2006)
